From patent US10246456B2, “IRAK4 inhibiting agents” (BIOGEN MA INC., priority 2014, dated 2019)

Legend:
IL-6 in A549 cells = experiment: Cell-based IL-6 ELISA assay in IL-1beta stimulated A549 cells; conditions: 2 ng/ml human IL-1beta overnight
Method in brief: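 A549 cells (2.5×10^4/well, DMEM/10% FBS) pretreated 30 min at 37 C with compound, 10-point serial dilution from 10 uM, then stimulated overnight with 2 ng/ml human IL-1beta. Secreted IL-6 in supernatant quantified by human IL-6 ELISA.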

IRAK4 = IRAK4 (Homo sapiens (Human), UniProt Q9NWZ3); experiment: IRAK-4 AlphaScreen biochemical kinase assay; conditions: 1 nM IRAK4, 1 mM ATP, 3.5 h at RT
IRAK4, sequence (Q9NWZ3 whole entry, species assumed): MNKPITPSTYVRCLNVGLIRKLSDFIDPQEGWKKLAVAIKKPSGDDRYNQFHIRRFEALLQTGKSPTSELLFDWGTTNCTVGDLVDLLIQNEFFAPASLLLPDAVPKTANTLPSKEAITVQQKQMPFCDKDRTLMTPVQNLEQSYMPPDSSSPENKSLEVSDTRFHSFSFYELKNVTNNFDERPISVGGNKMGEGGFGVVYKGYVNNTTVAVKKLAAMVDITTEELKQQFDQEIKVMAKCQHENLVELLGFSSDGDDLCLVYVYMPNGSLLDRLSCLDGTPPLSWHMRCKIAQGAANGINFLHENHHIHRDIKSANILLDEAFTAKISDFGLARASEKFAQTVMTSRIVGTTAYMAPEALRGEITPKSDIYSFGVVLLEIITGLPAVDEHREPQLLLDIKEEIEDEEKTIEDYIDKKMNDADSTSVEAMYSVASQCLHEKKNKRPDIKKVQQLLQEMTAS
Method in brief: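 AlphaScreen read-out: streptavidin beads bind the biotinylated peptide and protein A beads bind the anti-phosphothreonine antibody, so energy transfer reports phosphorylation of the peptide. The kinase is human IRAK-4.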

| SMILES | EC50 (IL-6 in A549 cells) [nM] | IC50 (IRAK4) [nM] |
| --- | --- | --- |
| CCC[C@H](N)c1cccc(-c2cc(N3CCSCC3)c3cnn(-c4cccc(CO)n4)c3c2)n1 [Example 338, (S)-(6-(6-(6-(1-aminobutyl)pyridin-2-yl)-4-thiomorpholino-1H-indazol-1-yl)pyridin-2-yl)methanol] | ≤ 1000 | < 100 |
| C[C@H](N)c1cccc(-c2cc(-c3nccs3)c3cnn(-c4cccc(CO)n4)c3c2)n1 [Example 379, (S)-(6-(6-(6-(1-aminoethyl)pyridin-2-yl)-4-(thiazol-2-yl)-1H-indazol-1-yl)pyridin-2-yl)methanol] | 1000 to 10000 | < 100 |
| CCC[C@H](N)c1cccc(-c2cc(CF)c3cnn(-c4cccc(CO)n4)c3c2)n1 [Example 487, (S)-(6-(6-(6-(l-aminobutyl)pyridin-2-yl)-4-(fluoromethyl)-1H-indazol-1-yl)pyridin-2-yl)methanol] | ≤ 1000 | < 100 |
| CCC[C@H](N)c1cccc(-c2cc(NCC)c3cnn(-c4cccc(CO)n4)c3c2)n1 [Example 328, (S)-(6-(6-(6-(1-aminobutyl)pyridin-2-yl)-4-(ethylamino)-1H-indazol-1-yl)pyridin-2-yl)methanol] | ≤ 1000 | < 100 |
| COCCC[C@H](N)c1cccc(-c2cc(OC)c3cnn(-c4cccc(CO)n4)c3c2)n1 [Example 509, (S)-(6-(6-(6-(1-amino-4-methoxybutyl)pyridin-2-yl)-4-methoxy-1H-indazol-1-yl)pyridin-2-yl)methanol] | ≤ 1000 | < 100 |
| NC(c1cccc(-c2ccc3cnn(-c4cccc(CO)n4)c3c2)n1)C1CC1 (centres unmarked) [Example 538, (6-(6-(6-(amino(cyclopropyl)methyl)pyridin-2-yl)-1H-indazol-1-yl)pyridin-2-yl)methanol] | ≤ 1000 | < 100 |
| CCC[C@H](N)c1cccc(-c2cc(OCC3CCCNC3)c3cnn(-c4cccc(CO)n4)c3c2)n1 (stereo partly drawn) [Example 506, (6-(6-(6-((S)-1-aminobutyl)pyridin-2-yl)-4-(piperidin-3-ylmethoxy)-1H-indazol-1-yl)pyridin-2-yl)methanol] | ≤ 1000 | < 100 |

The next lines start with the values.

| EC50 (IL-6 in A549 cells) [nM] | IC50 (IRAK4) [nM] | SMILES |
| --- | --- | --- |
| ≤ 1000 | < 100 | CCC[C@H](N)c1cccc(-c2cc(NCC(C)(C)CCl)c3cnn(-c4cccc(CO)n4)c3c2)n1 [Example 344, (S)-(6-(6-(6-(1-aminobutyl)pyridin-2-yl)-4-((3-chloro-2,2-dimethylpropyl)amino)-1H-indazol-1-yl)pyridin-2-yl)methanol] |
| ≤ 1000 | < 100 | CCC[C@H](N)c1cccc(-c2cc(COC)c3cnn(-c4cccc(CO)n4)c3c2)n1 [Example 495, (S)-(6-(6-(6-(1-aminobutyl)pyridin-2-yl)-4-(methoxymethyl)-1H-indazol-1-yl)pyridin-2-yl)methanol] |
| ≤ 1000 | < 100 | CCC[C@H](N)c1cccc(-c2cc(OC)c3cnn(-c4cncc(CO)n4)c3c2)n1 [Example 489, (S)-(6-(6-(6-(1-aminobutyl)pyridin-2-yl)-4-methoxy-1H-indazol-1-yl)pyrazin-2-yl)methanol] |
| ≤ 1000 | < 100 | CCC[C@H](N)c1cccc(-c2ccc3cnn(-c4cccc(CF)n4)c3c2)n1 [Example 518, (S)-1-(6-(1-(6-(fluoromethyl)pyridin-2-yl)-1H-indazol-6-yl)pyridin-2-yl)butan-1-amine] |
| ≤ 1000 | < 100 | CCC[C@H](N)c1cccc(-c2cc(OCC)c3cnn(-c4cccc(CO)n4)c3c2)n1 [Example 464, (S)-(6-(6-(6-(1-aminobutyl)pyridin-2-yl)-4-ethoxy-1H-indazol-1-yl)pyridin-2-yl)methanol] |
| ≤ 1000 | < 100 | C[C@H](N)c1cccc(-c2cc(-c3ccn(C)n3)c3cnn(-c4cccc(CO)n4)c3c2)n1 [Example 357, (S)-(6-(6-(6-(1-aminoethyl)pyridin-2-yl)-4-(1-methyl-1H-pyrazol-3-yl)-1H-indazol-1-yl)pyridin-2-yl)methanol] |
